From ChEMBL document CHEMBL1140967, “Regiospecific microwave-assisted synthesis and cytotoxic activity against human breast cancer cells of (RS)-6-substituted-7- or 9-(2,3-dihydro-5H-1,4-benzodioxepin-3-yl)-7H- or -9H-purines” (Eur J Med Chem, 2008)

Key:
[1] = system: MCF7; test: Antiproliferative activity against human MCF7 cells after 6 days by SRB assay; conditions: MCF7, 144 h
[2] = system: MCF7; test: Cell cycle arrest in human MCF7 cells assessed as accumulation at G2/M phase at cytotoxic IC50 after 48 hrs by FACS assay; type: functional
[3] = system: MCF7; test: Cell cycle arrest in human MCF7 cells assessed as accumulation at S phase at cytotoxic IC50 after 48 hrs by FACS assay; type: functional
[4] = system: MCF7; test: Cell cycle arrest in human MCF7 cells assessed as accumulation at G0/G1 phase at cytotoxic IC50 after 48 hrs by FACS assay; type: functional
[5] = system: MCF7; test: Induction of apoptosis in human MCF7 cells at cytotoxic IC50 after 48 hrs by Annexin-V based assay; type: functional

| Structure (SMILES) | IC50 [1] [µM] | further results |
| --- | --- | --- |
| CSc1ncnc2[nH]cnc12 | 23.6 |  |
| c1ccc(Sc2ncnc3[nH]cnc23)cc1 | 31 |  |
| Fc1ccc(Sc2ncnc3[nH]cnc23)cc1 | 31.6 |  |
| Nc1nc(OCC2CCCCC2)c2nc[nH]c2n1 | 24.2 |  |
| c1ccc(Oc2ncnc3[nH]cnc23)cc1 | 28.4 |  |
| O=c1ccn(C2COc3ccccc3CO2)c(=O)[nH]1 (configuration not stated) | 5 |  |
| c1nc(OCC2CCCCC2)c2nc[nH]c2n1 | 32.3 |  |
| C=CCOc1ncnc2[nH]cnc12 | 44.7 |  |
| Clc1ccc(Sc2ncnc3[nH]cnc23)c(Cl)c1 | 21.4 |  |
| c1ccc(Oc2ncnc3c2ncn3C2COc3ccccc3CO2)cc1 (racemic) | 24.7 |  |
| Clc1ccc(Sc2ncnc3c2ncn3C2COc3ccccc3CO2)c(Cl)c1 (racemic) | 12 |  |
| c1ccc2c(c1)COC(n1cnc3c(OCC4CCCCC4)ncnc31)CO2 (racemic) | 11.6 |  |
| Fc1ccc(Sc2ncnc3ncn(C4COc5ccccc5CO4)c23)cc1 (racemic) | 14.1 |  |
| Fc1ccc(Sc2ncnc3c2ncn3C2COc3ccccc3CO2)cc1 (racemic) | 11.2 |  |
| c1ccc2c(c1)COC(n1cnc3ncnc(OCC4CCCCC4)c31)CO2 (racemic) | 13.4 |  |
| c1ccc(Oc2ncnc3ncn(C4COc5ccccc5CO4)c23)cc1 (racemic) | 21.1 |  |
| c1ccc(Sc2ncnc3ncn(C4COc5ccccc5CO4)c23)cc1 (racemic) | 15.6 |  |
| Clc1ccc(Sc2ncnc3ncn(C4COc5ccccc5CO4)c23)c(Cl)c1 (racemic) | 8.4 | Activity [2]: 19.16%; Activity [3]: 22.73%; Activity [4]: 58.1%; Activity [5]: 65.28% |
| C=CCOc1ncnc2c1ncn2C1COc2ccccc2CO1 (racemic) | 5.04 | Activity [2]: 7.37%; Activity [3]: 37%; Activity [4]: 55.63%; Activity [5]: 44.47% |
| CSc1ncnc2c1ncn2C1COc2ccccc2CO1 (racemic) | 24 |  |
| c1ccc(Sc2ncnc3c2ncn3C2COc3ccccc3CO2)cc1 (racemic) | 7.12 | Activity [2]: 11.08%; Activity [3]: 26.82%; Activity [4]: 59.1%; Activity [5]: 73.37% |
| CSc1ncnc2ncn(C3COc4ccccc4CO3)c12 (racemic) | 31.8 |  |
| C=CCOc1ncnc2ncn(C3COc4ccccc4CO3)c12 (racemic) | 20.9 |  |
| O=c1[nH]cc(F)c(=O)[nH]1 [FLUOROURACIL] | 4.32 |  |
| CC(=O)O[C@H]1C(=O)[C@@]2(C)[C@H]([C@H](OC(=O)c3ccccc3)[C@]3(O)C[C@H](OC(=O)[C@H](O)[C@@H](NC(=O)c4ccccc4)c4ccccc4)C(C)=C1C3(C)C)[C@]1(OC(C)=O)CO[C@@H]1C[C@@H]2O [PACLITAXEL] |  | Activity [5]: 43% |
